Experimental data: ChEMBL document CHEMBL3885881, “DrugMatrix”

Species on record: Rattus norvegicus
Assay: DrugMatrix - Regimen: Daily Repeat
Format: toxicity, organism-based, Sprague-Dawley
Design: regimen Daily Repeat, gender Male, age 6-8 weeks
Details: in vivo, sc, route subcutaneous, […]; for ABSOLUTE BASOPHIL / ABSOLUTE EOSINOPHIL / ABSOLUTE LYMPHOCYTE / ABSOLUTE MONOCYTE / ABSOLUTE SEGMENTED NEUTROPHIL / BASOPHIL / EOSINOPHIL / ERYTHROCYTE COUNT / HEMATOCRIT / HEMOGLOBIN / LEUKOCYTE COUNT / LYMPHOCYTE / MEAN CORPUSCULAR HEMOGLOBIN / MEAN CORPUSCULAR HEMOGLOBIN CONCENTRATION / MEAN CORPUSCULAR VOLUME / MONOCYTE / NEUTROPHIL / NUCLEATED RED BLOOD CELLS / PLATELET COUNT: tissue Blood; for ALANINE AMINOTRANSFERASE / ALBUMIN / ALKALINE PHOSPHATASE / ASPARTATE AMINOTRANSFERASE / BLOOD UREA NITROGEN / CARBON DIOXIDE / CHLORIDE / CHOLESTEROL / CREATINE PHOSPHOKINASE / CREATININE / GLUCOSE / LACTATE DEHYDROGENASE / LIPASE / PHOSPHORUS / POTASSIUM / SODIUM / TOTAL BILIRUBIN / TOTAL PROTEIN / URIC ACID: tissue Plasma
[1] = 0.4 mg/kg, 72 h, dose level Low, time 3 day
[2] = 0.4 mg/kg, 120 h, dose level Low, time 5 day
[3] = 4 mg/kg, 72 h, dose level High, time 3 day
[4] = 4 mg/kg, 120 h, dose level High, time 5 day

SMILES: COc1cc([C@@H]2c3cc4c(cc3[C@H](O)[C@H]3COC(=O)[C@H]23)OCO4)cc(OC)c1OC [PODOFILOX]
- ABSOLUTE BASOPHIL [1]: 0 CELLS/uL
- ABSOLUTE EOSINOPHIL [1]: 46.67 CELLS/uL
- ABSOLUTE LYMPHOCYTE [1]: 10326.67 CELLS/uL
- ABSOLUTE MONOCYTE [1]: 246 CELLS/uL
- ABSOLUTE SEGMENTED NEUTROPHIL [1]: 1114 CELLS/uL
- BASOPHIL [1]: 0%
- EOSINOPHIL [1]: 0.33%
- ERYTHROCYTE COUNT [1]: 5.36 x10E6/uL
- HEMATOCRIT [1]: 33.43%
- HEMOGLOBIN [1]: 12.37 G/DL
- LEUKOCYTE COUNT [1]: 11.73 x10E3/uL
- LYMPHOCYTE [1]: 88.33%
- MEAN CORPUSCULAR HEMOGLOBIN [1]: 23.07 pg
- MEAN CORPUSCULAR HEMOGLOBIN CONCENTRATION [1]: 37 G/DL
- MEAN CORPUSCULAR VOLUME [1]: 62.43 fL
- MONOCYTE [1]: 2%
- NEUTROPHIL [1]: 9.33%
- NUCLEATED RED BLOOD CELLS [1]: 0 /100WBC
- PLATELET COUNT [1]: 1280.67 x10E3/uL
- ALANINE AMINOTRANSFERASE [1]: 44.33 u/L
- ALBUMIN [1]: 3.33 G/DL
- ALKALINE PHOSPHATASE [1]: 320.67 u/L
- ASPARTATE AMINOTRANSFERASE [1]: 77.67 u/L
- BLOOD UREA NITROGEN [1]: 16.33 mg/dL
- CARBON DIOXIDE [1]: 27.33 mmol/L
- CHLORIDE [1]: 104.67 MEQ/L
- CHOLESTEROL [1]: 67.33 mg/dL
- CREATINE PHOSPHOKINASE [1]: 222.67 u/L
- CREATININE [1]: 0.2 mg/dL
- GLUCOSE [1]: 162 mg/dL
- LACTATE DEHYDROGENASE [1]: 146.67 u/L
- LIPASE [1]: 8 u/L
- PHOSPHORUS [1]: 12.87 mg/dL
- POTASSIUM [1]: 6.48 MEQ/L
- SODIUM [1]: 146.23 MEQ/L
- TOTAL BILIRUBIN [1]: 0.2 mg/dL
- TOTAL PROTEIN [1]: 5.23 G/DL
- URIC ACID [1]: 1.53 mg/dL
- ABSOLUTE BASOPHIL [2]: 0 CELLS/uL
- ABSOLUTE EOSINOPHIL [2]: 0 CELLS/uL
- ABSOLUTE LYMPHOCYTE [2]: 4413.33 CELLS/uL
- ABSOLUTE MONOCYTE [2]: 17.67 CELLS/uL
- ABSOLUTE SEGMENTED NEUTROPHIL [2]: 1569 CELLS/uL
- BASOPHIL [2]: 0%
- EOSINOPHIL [2]: 0%
- ERYTHROCYTE COUNT [2]: 5.41 x10E6/uL
- HEMATOCRIT [2]: 33.67%
- HEMOGLOBIN [2]: 12.57 G/DL
- LEUKOCYTE COUNT [2]: 6 x10E3/uL
- LYMPHOCYTE [2]: 73.67%
- MEAN CORPUSCULAR HEMOGLOBIN [2]: 23.23 pg
- MEAN CORPUSCULAR HEMOGLOBIN CONCENTRATION [2]: 37.33 G/DL
- MEAN CORPUSCULAR VOLUME [2]: 62.3 fL
- MONOCYTE [2]: 0.33%
- NEUTROPHIL [2]: 26%
- NUCLEATED RED BLOOD CELLS [2]: 0.67 /100WBC
- PLATELET COUNT [2]: 1853.33 x10E3/uL
- ALANINE AMINOTRANSFERASE [2]: 44.33 u/L
- ALBUMIN [2]: 4.03 G/DL
- ALKALINE PHOSPHATASE [2]: 296.33 u/L
- ASPARTATE AMINOTRANSFERASE [2]: 117 u/L
- BLOOD UREA NITROGEN [2]: 19.33 mg/dL
- CARBON DIOXIDE [2]: 26 mmol/L
- CHLORIDE [2]: 105.67 MEQ/L
- CHOLESTEROL [2]: 82.67 mg/dL
- CREATINE PHOSPHOKINASE [2]: 843.33 u/L
- CREATININE [2]: 0.2 mg/dL
- GLUCOSE [2]: 187.33 mg/dL
- LACTATE DEHYDROGENASE [2]: 167.67 u/L
- LIPASE [2]: 8.67 u/L
- PHOSPHORUS [2]: 11.4 mg/dL
- POTASSIUM [2]: 6.97 MEQ/L
- SODIUM [2]: 148.4 MEQ/L
- TOTAL BILIRUBIN [2]: 0.1 mg/dL
- TOTAL PROTEIN [2]: 6.7 G/DL
- URIC ACID [2]: 2.73 mg/dL
- ABSOLUTE BASOPHIL [3]: 0 CELLS/uL
- ABSOLUTE EOSINOPHIL [3]: 70.67 CELLS/uL
- ABSOLUTE LYMPHOCYTE [3]: 10536.33 CELLS/uL
- ABSOLUTE MONOCYTE [3]: 257.67 CELLS/uL
- ABSOLUTE SEGMENTED NEUTROPHIL [3]: 768.67 CELLS/uL
- BASOPHIL [3]: 0%
- EOSINOPHIL [3]: 0.67%
- ERYTHROCYTE COUNT [3]: 4.67 x10E6/uL
- HEMATOCRIT [3]: 29.03%
- HEMOGLOBIN [3]: 11 G/DL
- LEUKOCYTE COUNT [3]: 11.63 x10E3/uL
- LYMPHOCYTE [3]: 90.33%
- MEAN CORPUSCULAR HEMOGLOBIN [3]: 23.63 pg
- MEAN CORPUSCULAR HEMOGLOBIN CONCENTRATION [3]: 37.93 G/DL
- MEAN CORPUSCULAR VOLUME [3]: 62.43 fL
- MONOCYTE [3]: 2.33%
- NEUTROPHIL [3]: 6.67%
- NUCLEATED RED BLOOD CELLS [3]: 0.67 /100WBC
- PLATELET COUNT [3]: 1479.33 x10E3/uL
- ALANINE AMINOTRANSFERASE [3]: 36 u/L
- ALBUMIN [3]: 3.27 G/DL
- ALKALINE PHOSPHATASE [3]: 238.33 u/L
- ASPARTATE AMINOTRANSFERASE [3]: 81 u/L
- BLOOD UREA NITROGEN [3]: 15.33 mg/dL
- CARBON DIOXIDE [3]: 22.67 mmol/L
- CHLORIDE [3]: 105.67 MEQ/L
- CHOLESTEROL [3]: 61 mg/dL
- CREATINE PHOSPHOKINASE [3]: 371.33 u/L
- CREATININE [3]: 0.17 mg/dL
- GLUCOSE [3]: 145 mg/dL
- LACTATE DEHYDROGENASE [3]: 371.33 u/L
- LIPASE [3]: 7.67 u/L
- PHOSPHORUS [3]: 9.1 mg/dL
- POTASSIUM [3]: 6.96 MEQ/L
- SODIUM [3]: 144.97 MEQ/L
- TOTAL BILIRUBIN [3]: 0.17 mg/dL
- TOTAL PROTEIN [3]: 5.3 G/DL
- URIC ACID [3]: 1.73 mg/dL
- ABSOLUTE BASOPHIL [4]: 0 CELLS/uL
- ABSOLUTE EOSINOPHIL [4]: 0 CELLS/uL
- ABSOLUTE LYMPHOCYTE [4]: 6143.67 CELLS/uL
- ABSOLUTE MONOCYTE [4]: 159 CELLS/uL
- ABSOLUTE SEGMENTED NEUTROPHIL [4]: 330.67 CELLS/uL
- BASOPHIL [4]: 0%
- EOSINOPHIL [4]: 0%
- ERYTHROCYTE COUNT [4]: 5.45 x10E6/uL
- HEMATOCRIT [4]: 32.83%
- HEMOGLOBIN [4]: 12.27 G/DL
- LEUKOCYTE COUNT [4]: 6.63 x10E3/uL
- LYMPHOCYTE [4]: 93%
- MEAN CORPUSCULAR HEMOGLOBIN [4]: 22.5 pg
- MEAN CORPUSCULAR HEMOGLOBIN CONCENTRATION [4]: 37.37 G/DL
- MEAN CORPUSCULAR VOLUME [4]: 60.13 fL
- MONOCYTE [4]: 2.33%
- NEUTROPHIL [4]: 4.67%
- NUCLEATED RED BLOOD CELLS [4]: 0 /100WBC
- PLATELET COUNT [4]: 878 x10E3/uL
- ALANINE AMINOTRANSFERASE [4]: 45.67 u/L
- ALBUMIN [4]: 3.57 G/DL
- ALKALINE PHOSPHATASE [4]: 214.33 u/L
- ASPARTATE AMINOTRANSFERASE [4]: 96.33 u/L
- BLOOD UREA NITROGEN [4]: 18 mg/dL
- CARBON DIOXIDE [4]: 26.5 mmol/L
- CHLORIDE [4]: 104.5 MEQ/L
- CHOLESTEROL [4]: 69.5 mg/dL
- CREATINE PHOSPHOKINASE [4]: 269.67 u/L
- CREATININE [4]: 0.18 mg/dL
- GLUCOSE [4]: 163 mg/dL
- LACTATE DEHYDROGENASE [4]: 182.67 u/L
- LIPASE [4]: 8 u/L
- PHOSPHORUS [4]: 11.1 mg/dL
- POTASSIUM [4]: 5.69 MEQ/L
- SODIUM [4]: 146.25 MEQ/L
- TOTAL BILIRUBIN [4]: 0.1 mg/dL
- TOTAL PROTEIN [4]: 5.8 G/DL
- URIC ACID [4]: 1.35 mg/dL
